Laboratory results as given in the NIST ThermoML archive (doi:10.1016/j.jct.2010.08.010).

Conditions: Liquid, Buoyancy - hydrostatic balance with magnetic suspension - one sinker

CCO [ethanol]
Conditions | mass density [kg/m3]
353.15 K, 5946.1 kPa | 742.072
353.15 K, 8005.6 kPa | 744.473
353.15 K, 10092 kPa | 746.834
353.15 K, 12108 kPa | 749.042
353.15 K, 14010 kPa | 751.074
353.15 K, 16061 kPa | 753.214
353.15 K, 18136 kPa | 755.321
353.15 K, 20137 kPa | 757.302
353.15 K, 22100 kPa | 759.195
353.15 K, 24062 kPa | 761.047
353.15 K, 26069 kPa | 762.906
353.15 K, 28075 kPa | 764.73
353.15 K, 30016 kPa | 766.442
373.15 K, 1102.9 kPa | 715.263
373.15 K, 2003.4 kPa | 716.613
373.15 K, 4088.3 kPa | 719.636
373.15 K, 6108.7 kPa | 722.45
373.15 K, 8076 kPa | 725.091
373.15 K, 10096 kPa | 727.71
373.15 K, 12124 kPa | 730.256
373.15 K, 14044 kPa | 732.583
373.15 K, 16078 kPa | 734.983
373.15 K, 18122 kPa | 737.319
373.15 K, 20098 kPa | 739.516
373.15 K, 22116 kPa | 741.702
373.15 K, 24049 kPa | 743.742
373.15 K, 26068 kPa | 745.822
373.15 K, 28108 kPa | 747.871
373.15 K, 29942 kPa | 749.678
393.15 K, 1102.9 kPa | 691.923
393.15 K, 2003.6 kPa | 693.559
393.15 K, 3981 kPa | 697.012
393.15 K, 6085.6 kPa | 700.514
393.15 K, 8006.1 kPa | 703.56
393.15 K, 10040 kPa | 706.659
393.15 K, 12072 kPa | 709.623
393.15 K, 14119 kPa | 712.504
393.15 K, 16086 kPa | 715.168
393.15 K, 18081 kPa | 717.782
393.15 K, 19900 kPa | 720.097
393.15 K, 22039 kPa | 722.726
393.15 K, 24041 kPa | 725.121
393.15 K, 26092 kPa | 727.505
393.15 K, 28070 kPa | 729.738
393.15 K, 29851 kPa | 731.71
413.15 K, 1102.6 kPa | 665.097
413.15 K, 2002.8 kPa | 667.194
413.15 K, 4113.3 kPa | 671.781
413.15 K, 6094.1 kPa | 675.838
413.15 K, 8091.5 kPa | 679.694
413.15 K, 10044 kPa | 683.283
413.15 K, 11973 kPa | 686.66
413.15 K, 14085 kPa | 690.174
413.15 K, 16053 kPa | 693.316
413.15 K, 18080 kPa | 696.427
413.15 K, 20003 kPa | 699.262
413.15 K, 22069 kPa | 702.204
413.15 K, 24049 kPa | 704.916
413.15 K, 26035 kPa | 707.559
413.15 K, 27916 kPa | 709.988
413.15 K, 30021 kPa | 712.618
433.15 K, 2003.3 kPa | 636.052
433.15 K, 4004.9 kPa | 641.895
433.15 K, 6117.7 kPa | 647.513
433.15 K, 7970.2 kPa | 652.088
433.15 K, 10076 kPa | 656.927
433.15 K, 12092 kPa | 661.27
433.15 K, 14024 kPa | 665.195
433.15 K, 16095 kPa | 669.184
433.15 K, 17956 kPa | 672.597
433.15 K, 20025 kPa | 676.22
433.15 K, 22076 kPa | 679.658
433.15 K, 23970 kPa | 682.703
433.15 K, 26097 kPa | 685.993
433.15 K, 27971 kPa | 688.786
433.15 K, 29931 kPa | 691.61
453.15 K, 2000.7 kPa | 597.505
453.15 K, 4003.1 kPa | 606.126
453.15 K, 5998.3 kPa | 613.615
453.15 K, 7995.3 kPa | 620.308
453.15 K, 10007 kPa | 626.429
453.15 K, 12086 kPa | 632.177
453.15 K, 14048 kPa | 637.222
453.15 K, 15954 kPa | 641.798
453.15 K, 17939 kPa | 646.288
453.15 K, 20012 kPa | 650.704
453.15 K, 22018 kPa | 654.751
453.15 K, 24140 kPa | 658.813
453.15 K, 25982 kPa | 662.178
453.15 K, 28127 kPa | 665.939
453.15 K, 30017 kPa | 669.115
473.15 K, 4002.6 kPa | 562.328
473.15 K, 6007.1 kPa | 573.872
473.15 K, 8001.4 kPa | 583.438
473.15 K, 10006 kPa | 591.752
473.15 K, 12009 kPa | 599.085
473.15 K, 14093 kPa | 605.96
473.15 K, 15977 kPa | 611.66
473.15 K, 18013 kPa | 617.325
473.15 K, 20010 kPa | 622.485
473.15 K, 21973 kPa | 627.259
473.15 K, 24020 kPa | 631.94
473.15 K, 25868 kPa | 635.925
473.15 K, 28002 kPa | 640.289
473.15 K, 30014 kPa | 644.229
